What was measured:
DAOY [1] = experiment: Apoptosis by cleaved caspase 3 immunofluorescence in nestin-positive and nestin-negative cells; type: cell-based; conditions: 2 μM, 48 hours
E3LZ10.7 = experiment: Colony formation in soft agar after pre-treatment; type: cell-based, human
Description: (§1) (Top) Experimental scheme illustrating pre-treatment of pancreatic cancer cell lines with GSI-18, prior to plating for soft agar assays and subcutaneous injection in athymic mice. Treatment for 24 hours with GSI-18 or vehicle is followed by recovery in full serum for a further 24 hours minus the drug. Equal numbers of viable cells from the control and treated groups are then plated for colony assays in soft agar, or injected in nude mice. Of note, during the in vitro or in vivo assays, no further drug is administered. […] The dosage required for significant inhibition of clonogenicity varies between 2 μM (Capan-1) to 5 μM (E3LZ10.7). Bar graphs represent colony counts at two weeks, with mean and standard deviations calculated from triplicate experiments. (Left) Pre-treatment with GSI-18 inhibits tumorigenicity of Panc-1 pancreatic cancer cell line in athymic mice. […] Error bars represent standard deviation of five mice per arm.

DAOY [2] = experiment: Xenograft initiation by pretreated cells injected subcutaneously in athymic (nude) mice; type: in vivo
Description: A clonogenic assay was used to determine whether cells capable of initiating anchorage-independent colonies were depleted by GSI-18. In vehicle-treated DAOY cultures, 2.9% of cells formed large colonies when seeded in soft agar (FIG. 7H). This number dropped to 0.26% when an equal number of viable cells were counted and seeded after 48 hours of treatment with GSI-18, and increased to 7.2% in the presence of constitutive Notch2 activation. Initiation of tumor xenografts was assayed next, a strategy used in several previous studies to examine the presence or absence of cancer stem cells (6-8). DAOY and DAOY:NICD2 cultures were treated with either 2 μM GSI-18 or vehicle alone, and the viable cells remaining after 48 hours counted using Trypan blue. 500,000 viable cells from each group were then injected subcutaneously in athymic (nude) mice. Large xenografts formed at the sites of all 12 control injections. […] To rule out the possibility that cells were alive but moribund following gamma-secretase inhibition, the experiment was repeated with cells counted after a recovery period.

DAOY [3] = experiment: Tumor engraftment in mice treated intraperitoneally after subcutaneous cell injection; type: in vivo, athymic nude mice; conditions: 0.5 mg i.p. in DMSO for five consecutive days from day of xenograft initiation, four mice
Description: (§2) FIG. 8G is a graph plotting xenograft volume against number of days following injection of DAOY and DAOY:NIC2D cells in athymic nude mice, which were either treated with vehicle or 0.5 mg i.p. of GSI-18 for 5 consecutive days following subcutaneous tumor injection.
(§3) As a test of the requirement for ongoing Notch activity during tumor engraftment, animals were treated with GSI-18 after subcutaneously injecting DAOY and DAOY:NICD2 cells into their left and right flanks. A treatment group of four mice received intraperitoneal injections containing 0.5 mg GSI-18 in DMSO for five consecutive days, beginning on the day of xenograft initiation, while the control group was treated with vehicle alone.

DAOY:NICD2 [4] = experiment: as above; type: in vivo, athymic nude mice; conditions: 0.5 mg i.p. for five consecutive days
Description: as §2, §3

D425Med = experiment: Number of live cells (Guava Viacount); type: cell-based; conditions: 2 μM
Description: (§4) The fact that cultures grew 2-fold or more during the same time period that side population was essentially ablated by Notch pathway blockade provides additional support for the notion that medulloblatoma CSC are especially vulnerable to Notch signaling inhibition.
(§5) The DAOY, PFSK, D283 and D425 Med cell lines were obtained from the American Type Culture Collection. The low-passage MB line MB2 was derived from a tumor resected at Johns Hopkins Hospital. For treatment studies, cell were plated and allowed to grow overnight in MEM (Invitrogen, Carlsbad, Calif.) containing 10% FBS, then media was replaced the next morning with low serum (0.5% FBS) MEM containing GSI dissolved in DMSO. RNA and protein extractions, and all cell-based assays, were performed 48 hours after drug application unless otherwise noted. All experiments with error bars were performed in triplicate and shown as mean values with standard error unless otherwise noted. Cell mass was measured using CellTITER assays according to the manufacturer's instructions (Promega, Madison, Wis.). Cell number and viability were assessed using the Guava PCA and Viacount reagent according to instructions (Guava Technologies, Heyward, Calif.). Soft agar assays were performed as previously described (15) and scored either manually after 4 weeks or using as automated reader after 6 weeks. The constitutively active Akt stable cell line was made by transfecting DAOY cells with myristolated Akt (pCB6-IMy-Akt-HA) or control (pCB6+) plasmids (kind gifts from Susan J. Baker) and selecting and maintaining clones in 0.8 mg/ml G418. Soft agar assays were performed as previously described, with colonies counted using an automated reader (15).

PFSK = experiment: Number of live cells (Guava Viacount); type: cell-based; conditions: 2 μM
Description: as §4, §5

DAOY [5] = experiment: Number of live cells (Guava Viacount); type: cell-based; conditions: 2 μM
Description: as §4, §5

D283Med = experiment: Number of live cells (Guava Viacount); type: cell-based; conditions: 2 μM
Description: as §4, §5

[6] = test system: Panc-1 pancreatic cancer cell line; experiment: Tumorigenicity of pre-treated cells injected subcutaneously in athymic mice; type: in vivo; conditions: five weeks post-injection; no further drug administered; five mice per arm
Description: as §1

DAOY:NICD2 [7] = experiment: Viable cell mass (CellTITER assay); type: cell-based; conditions: 0.4 μM and 2 μM
Description: as §4, §5

MB cultures = experiment: Viable cell mass (CellTITER assay); type: cell-based
Description: as §4, §5

O=S(=O)(NC1C2CCC1Cc1ccccc1C2)c1cccs1 (stereo not drawn) [GSI-18, [11-endo]-N-(5,6,7,8,9,10-hexahydro-6,9-methanobenzo[α][8]annulen-11-yl)-thiophene-2-sulfonamide]
increase of apoptotic rate in nestin-positive cells (putative CSC) (DAOY [1]): over 10 fold
colony formation following pre-treatment (E3LZ10.7; 24 hours pre-treatment, 24 hours recovery minus drug, colony counts at two weeks): Significant inhibition of colony formation
dosage required for significant inhibition of clonogenicity (E3LZ10.7; pre-treatment): 5 µM
xenograft formation from pretreated cells (DAOY [2]; 2 μM, 48 hours pretreatment, 500,000 viable cells injected subcutaneously): only one very small lesion formed among the four sites
tumor formation from pretreated cells after recovery (DAOY [2]; two days of treatment, 24 hours recovery in 10% FBS without inhibitor): unable to form tumors
engraftment in treated animals (DAOY [3]): failed to engraft in three of the four
tumor development in treated animals (DAOY:NICD2 [4]): Tumors also developed
growth in the number of live cells (D425Med): reduced as compared to vehicle treated controls
growth in the number of live cells (PFSK): reduced as compared to vehicle treated controls
growth in the number of live cells (DAOY [5]): reduced as compared to vehicle treated controls
growth in the number of live cells (D283Med): reduced as compared to vehicle treated controls
tumor volumes from pre-treated cells [6]: minimal tumor volumes
growth (viable cell mass) under NICD2 expression (DAOY:NICD2 [7]): rescued growth
short-term increases in viable cell mass (MB cultures; 0 μM, 0.4 μM, and 2 μM): reduced in a dose-dependent fashion
growth of cultures during Notch pathway blockade (MB cultures; same time period in which side population was ablated): ≥ 2 fold

— patent US20140227173A1, “CANCER TREATMENT WITH GAMMA-SECRETASE INHIBITORS” (The Johns Hopkins University, priority 2006, published 2014)
